The source of these data is patent US11939348B2, “Compositions comprising a phosphorus derivative of nicotinamide riboside and methods for modulation of nicotinamide adenine dinucleotide” (Metro International Biotech, LLC, priority 2019, dated 2024).

This assay deals with AML12 cells. In words: NAD(H) normalized to total protein in treated AML12 cells compared to untreated cells. Conditions: compound at 2 mM, 1 mM and 500 micromolar, untreated cells normalized to 1.0, FIG. 1. Format: cell-based. From the text:
Compound A is Formula I, n=2. Compound B is Formula I, n=1.

Turning to `NC(=O)c1ccc[n+]([C@@H]2O[C@H](COP(=O)([O-])OP(=O)([O-])OCC3O[C@@H]([n+]4cccc(C(N)=O)c4)[C@H](O)[C@@H]3O)[C@@H](O)[C@H]2O)c1` (some centres unmarked) [Compound A], the “NAD(H) normalized to total protein in treated AML12 cells compared to untreated cells” value is recorded as “possess NAD(H) boosting activity”.
`NC(=O)c1ccc[n+]([C@@H]2O[C@H](COP(=O)(O)OC[C@H]3O[C@@H]([n+]4cccc(C(N)=O)c4)[C@H](O)[C@@H]3O)[C@@H](O)[C@H]2O)c1` [Compound B, bis(((2R,3S,4R,5R)-5-(3-carbamoylpyridin-1-ium-1-yl)-3,4-dihydroxytetrahydrofuran-2-yl)methyl) phosphate acetate]: the “NAD(H) normalized to total protein in treated AML12 cells compared to untreated cells” value is given as “possess NAD(H) boosting activity”.
